20 compounds from patent US12685735B2 (Foghorn Therapeutics Inc., priority 2020, dated 2026) can be followed below.

Read-outs that look alike come from different tables or passages of the source.

As usually defined, the IC50 is the midpoint of a concentration-inhibition curve.

One assay concerns the target BRG-1 (Homo sapiens, UniProt P51532). Put plainly: ATPase catalytic activity assay of BRG-1 (ADP-Glo). The class given is biochemical. The settings on record: for IC50: read-out: BRG1 IC50 (μM)*. The gist of the method:
(§1)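 Measurement is luminescence, reflecting ADP produced by ATPase turnover. The two-step ADP-Glo detection consists of ATP depletion for 40 min and ADP-to-ATP conversion with luciferase for 60 min, both at room temperature.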
For orientation: In ADP-Glo the light output rises with the ADP produced.

For a further assay, the target named is BRM (Homo sapiens, UniProt P51531). As to the kind of experiment: ATPase catalytic activity assay of BRM (ADP-Glo). The class given is biochemical. The settings on record: for IC50: read-out: BRM IC50 (μM)*. The gist of the method: as §1
Sequence of BRM (P51531 whole entry): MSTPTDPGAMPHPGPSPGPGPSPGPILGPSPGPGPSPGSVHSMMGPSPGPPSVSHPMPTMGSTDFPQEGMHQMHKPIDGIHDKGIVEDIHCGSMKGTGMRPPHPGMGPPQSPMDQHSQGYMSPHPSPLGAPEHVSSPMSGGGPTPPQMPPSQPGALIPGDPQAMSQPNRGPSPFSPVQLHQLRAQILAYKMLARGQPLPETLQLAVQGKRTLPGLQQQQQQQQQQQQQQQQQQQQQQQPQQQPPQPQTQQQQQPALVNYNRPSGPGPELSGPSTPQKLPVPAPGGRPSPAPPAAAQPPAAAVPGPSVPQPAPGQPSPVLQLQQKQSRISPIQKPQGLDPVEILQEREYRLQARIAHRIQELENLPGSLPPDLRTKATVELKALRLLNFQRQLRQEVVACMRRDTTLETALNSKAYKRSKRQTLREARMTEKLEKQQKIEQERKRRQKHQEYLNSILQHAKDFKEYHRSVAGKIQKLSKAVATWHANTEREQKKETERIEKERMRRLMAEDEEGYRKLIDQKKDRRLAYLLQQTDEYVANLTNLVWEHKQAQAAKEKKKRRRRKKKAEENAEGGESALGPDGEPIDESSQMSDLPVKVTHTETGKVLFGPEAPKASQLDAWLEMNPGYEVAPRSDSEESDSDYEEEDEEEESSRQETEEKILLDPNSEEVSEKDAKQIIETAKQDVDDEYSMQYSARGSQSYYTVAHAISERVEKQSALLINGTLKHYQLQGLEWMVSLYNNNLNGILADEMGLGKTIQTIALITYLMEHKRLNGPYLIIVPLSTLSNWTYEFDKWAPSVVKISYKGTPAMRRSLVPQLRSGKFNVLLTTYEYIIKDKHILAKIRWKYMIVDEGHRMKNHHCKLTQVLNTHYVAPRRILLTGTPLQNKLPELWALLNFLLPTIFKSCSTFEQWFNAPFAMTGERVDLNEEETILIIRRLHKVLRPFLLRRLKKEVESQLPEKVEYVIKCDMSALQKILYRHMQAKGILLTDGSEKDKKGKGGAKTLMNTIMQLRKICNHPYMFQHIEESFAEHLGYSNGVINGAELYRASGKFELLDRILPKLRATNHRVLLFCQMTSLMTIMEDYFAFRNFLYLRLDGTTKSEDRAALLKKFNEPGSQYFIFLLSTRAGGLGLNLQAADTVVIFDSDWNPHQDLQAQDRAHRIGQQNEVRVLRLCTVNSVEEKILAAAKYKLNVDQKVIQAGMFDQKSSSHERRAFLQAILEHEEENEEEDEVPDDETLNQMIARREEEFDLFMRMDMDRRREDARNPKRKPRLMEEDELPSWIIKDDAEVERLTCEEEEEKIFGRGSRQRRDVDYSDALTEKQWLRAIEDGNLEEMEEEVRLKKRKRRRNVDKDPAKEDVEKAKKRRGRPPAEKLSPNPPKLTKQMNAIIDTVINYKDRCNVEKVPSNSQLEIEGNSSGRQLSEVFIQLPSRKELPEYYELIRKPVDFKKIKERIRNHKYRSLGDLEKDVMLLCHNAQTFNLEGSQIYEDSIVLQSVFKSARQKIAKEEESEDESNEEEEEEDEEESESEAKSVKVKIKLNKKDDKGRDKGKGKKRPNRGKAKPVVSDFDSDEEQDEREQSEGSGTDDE
[1] abbreviates: ATPase catalytic activity, ADP-Glo.
[2] abbreviates: ATPase catalytic activity, ADP-Glo, read-out: BRG1 Max % Inhibition.

Sequence of BRG-1 (P51532 whole entry): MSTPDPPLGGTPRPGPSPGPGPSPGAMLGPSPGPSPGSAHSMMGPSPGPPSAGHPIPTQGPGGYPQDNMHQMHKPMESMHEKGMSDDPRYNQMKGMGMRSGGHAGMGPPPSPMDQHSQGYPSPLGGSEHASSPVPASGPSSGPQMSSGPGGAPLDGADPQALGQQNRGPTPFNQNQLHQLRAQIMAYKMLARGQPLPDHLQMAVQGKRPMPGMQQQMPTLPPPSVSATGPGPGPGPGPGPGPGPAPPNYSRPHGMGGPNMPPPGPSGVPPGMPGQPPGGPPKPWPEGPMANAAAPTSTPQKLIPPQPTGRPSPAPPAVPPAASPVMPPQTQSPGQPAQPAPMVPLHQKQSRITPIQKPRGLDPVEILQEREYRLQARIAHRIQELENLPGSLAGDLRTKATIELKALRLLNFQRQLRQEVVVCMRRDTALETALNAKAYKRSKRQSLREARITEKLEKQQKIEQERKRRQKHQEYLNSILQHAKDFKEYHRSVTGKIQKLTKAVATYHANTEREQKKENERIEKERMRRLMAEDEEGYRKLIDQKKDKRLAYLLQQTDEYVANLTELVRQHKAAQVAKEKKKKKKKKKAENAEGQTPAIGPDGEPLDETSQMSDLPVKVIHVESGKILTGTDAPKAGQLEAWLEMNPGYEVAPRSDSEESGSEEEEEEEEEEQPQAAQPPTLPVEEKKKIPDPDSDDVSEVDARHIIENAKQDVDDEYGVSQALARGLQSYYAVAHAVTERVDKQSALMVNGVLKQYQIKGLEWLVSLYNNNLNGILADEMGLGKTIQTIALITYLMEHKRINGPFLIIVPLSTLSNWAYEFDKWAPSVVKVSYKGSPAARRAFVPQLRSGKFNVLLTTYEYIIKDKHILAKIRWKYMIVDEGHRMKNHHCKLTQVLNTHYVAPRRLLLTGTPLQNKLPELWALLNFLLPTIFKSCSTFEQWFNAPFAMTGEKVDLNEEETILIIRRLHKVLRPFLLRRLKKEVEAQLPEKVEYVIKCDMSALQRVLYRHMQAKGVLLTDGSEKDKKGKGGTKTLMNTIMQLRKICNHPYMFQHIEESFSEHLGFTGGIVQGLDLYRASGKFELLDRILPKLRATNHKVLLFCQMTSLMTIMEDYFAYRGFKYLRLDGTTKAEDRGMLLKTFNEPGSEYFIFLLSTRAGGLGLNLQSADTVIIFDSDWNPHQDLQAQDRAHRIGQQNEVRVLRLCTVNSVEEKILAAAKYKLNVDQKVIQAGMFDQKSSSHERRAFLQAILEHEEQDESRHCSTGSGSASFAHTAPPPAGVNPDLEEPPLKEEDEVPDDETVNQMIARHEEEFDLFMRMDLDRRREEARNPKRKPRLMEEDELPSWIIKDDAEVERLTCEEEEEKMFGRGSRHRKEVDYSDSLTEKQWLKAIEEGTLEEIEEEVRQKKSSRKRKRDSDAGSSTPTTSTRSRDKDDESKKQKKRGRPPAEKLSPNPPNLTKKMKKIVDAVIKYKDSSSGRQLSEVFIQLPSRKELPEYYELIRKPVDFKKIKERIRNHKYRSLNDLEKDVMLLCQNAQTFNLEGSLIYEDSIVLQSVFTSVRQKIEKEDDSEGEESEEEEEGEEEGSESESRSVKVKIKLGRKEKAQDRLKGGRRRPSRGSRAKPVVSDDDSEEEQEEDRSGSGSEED

Take `C[C@@]1(CO)CCc2ccc(C(=O)NCC(=O)Nc3nc(-c4cccc(-c5cccnc5O)n4)cs3)cc21` [Compound 264, (R)-N-(2-((4-(2′-hydroxy-[2,3′-bipyridin]-6-yl)thiazol-2-yl)amino)-2-oxoethyl)-3-(hydroxymethyl)-3-methyl-2,3-dihydro-1H-indene-5-carboxamide]: the IC50 at BRG-1 (setting [1]) is above 5 µM; on BRM it was 1 to 5 µM. Moreover, the Emax on BRG-1 (setting [2]) was below 30%. In addition, the “BRM Max % Inhibition” value at BRM was above 70%.

On to `Cn1ccc(-c2cccc(-c3csc(NC(=O)CNC(=O)c4ccc5c(c4)[C@](C)(CO)CC5)n3)n2)n1` [Compound 265, (3R)-3-(hydroxymethyl)-3-methyl-N-[2-[[4-[6-(1-methylpyrazol-3-yl)-2-pyridyl]thiazol-2-yl]amino]-2-oxo-ethyl]indane-5-carboxamide], for which, on BRG-1 (setting [1]), the IC50 was above 5 µM. Besides, the Emax on BRG-1 (setting [2]) was above 30%. Further, on BRM, the “BRM Max % Inhibition” value is above 70% and the IC50 lay within 1 to 5 µM.

As for `Cc1cc(-c2cccc(-c3csc(NC(=O)CNC(=O)c4ccc5c(c4)[C@@](C)(C#N)CC5)n3)n2)ncn1` [Compound 266, (3S)-3-cyano-3-methyl-N-[2-[[4-[6-(6-methylpyrimidin-4-yl)-2-pyridyl]thiazol-2-yl]amino]-2-oxo-ethyl]indane-5-carboxamide], the IC50 on BRG-1 (setting [1]) was above 5 µM. For the same compound, the Emax at BRG-1 (setting [2]) was above 30%. On BRM, the “BRM Max % Inhibition” value is reported as above 60% and the IC50 lay in the range of 1 to 5 µM.

Take `Cc1cc(-c2cccc(-c3csc(NC(=O)CNC(=O)c4ccc5c(c4)[C@](C)(C#N)CC5)n3)n2)ncn1` [Compound 267, (3R)-3-cyano-3-methyl-N-[2-[[4-[6-(6-methylpyrimidin-4-yl)-2-pyridyl]thiazol-2-yl]amino]-2-oxo-ethyl]indane-5-carboxamide]: the IC50 at BRG-1 (setting [1]) was below 0.1 µM. On BRG-1 (setting [2]), the Emax was above 95%. At BRM, the “BRM Max % Inhibition” value is listed as above 95% and the IC50 is below 0.1 µM.

Regarding `Cc1nccc(-c2cccc(-c3csc(NC(=O)CNC(=O)c4ccc5c(c4)[C@@](C)(C#N)CC5)n3)n2)n1` [Compound 268, (3S)-3-cyano-3-methyl-N-[2-[[4-[6-(2-methylpyrimidin-4-yl)-2-pyridyl]thiazol-2-yl]amino]-2-oxo-ethyl]indane-5-carboxamide], the IC50 at BRG-1 (setting [1]) fell in the range of 1 to 5 µM; at BRM, 0.1 to 1 µM. On BRG-1 (setting [2]), the Emax is above 50%. Besides, the “BRM Max % Inhibition” value at BRM is above 80%.

`COc1cccc(-c2csc(NC(=O)CNC(=O)c3cc(F)c4c(c3)[C@@](C)(C#N)COC4)n2)c1` [Compound 269, (S)-4-cyano-8-fluoro-N-(2-((4-(3-methoxyphenyl)thiazol-2-yl)amino)-2-oxoethyl)-4-methylisochromane-6-carboxamide]: the IC50 at BRG-1 (setting [1]) was above 5 µM. For the same compound, the Emax on BRG-1 (setting [2]) is above 90%. Besides, at BRM, the “BRM Max % Inhibition” value was above 90% and the IC50 fell in the range of 0.1 to 1 µM.

Turning to `COc1cccc(-c2csc(NC(=O)CNC(=O)c3cc(F)c4c(c3)[C@](C)(C#N)COC4)n2)c1` [Compound 270, (R)-4-cyano-8-fluoro-N-(2-((4-(3-methoxyphenyl)thiazol-2-yl)amino)-2-oxoethyl)-4-methylisochromane-6-carboxamide], on BRG-1 (setting [1]), the IC50 lay within 0.1 to 1 µM. The Emax on BRG-1 (setting [2]) is above 95%. Also, at BRM, the “BRM Max % Inhibition” value is above 95% and the IC50 was below 0.1 µM.

Consider `CC1OCCc2cc(C(=O)NCC(=O)Nc3nc(-c4cccc(N5C[C@@H](C)O[C@@H](C)C5)n4)cs3)ccc21` (stereo partly drawn) [Compound 271, N-(2-((4-(6-((cis)-2,6-dimethylmorpholino)pyridin-2-yl)thiazol-2-yl)amino)-2-oxoethyl)-1-methylisochromane-6-carboxamide], for which the IC50 on BRG-1 (setting [1]) is 1 to 5 µM. Further, the Emax on BRG-1 (setting [2]) was above 85%. For the same compound, on BRM, the “BRM Max % Inhibition” value is above 85% and the IC50 lay in the range of 0.1 to 1 µM.

On to `C[C@@H]1CN(c2cccc(-c3csc(NC(=O)CNC(=O)c4ccc5c(c4)[C@](F)(C(F)F)CCO5)n3)c2)C[C@H](C)O1` [Compound 274, (S)-4-(difluoromethyl)-N-(2-((4-(3-((cis)-2,6-dimethylmorpholino)phenyl)thiazol-2-yl)amino)-2-oxoethyl)-4-fluorochromane-6-carboxamide], for which the IC50 on BRG-1 (setting [1]) is below 0.1 µM. For the same compound, the Emax at BRG-1 (setting [2]) was above 95%. Moreover, at BRM, the “BRM Max % Inhibition” value is listed as above 95% and the IC50 is below 0.1 µM.

Turning to `C[C@@H]1CN(c2cccc(-c3csc(NC(=O)CNC(=O)c4ccc5c(c4)[C@@](F)(C(F)F)CCO5)n3)c2)C[C@H](C)O1` [Compound 275, (R)-4-(difluoromethyl)-N-(2-((4-(3-((cis)-2,6-dimethylmorpholino)phenyl)thiazol-2-yl)amino)-2-oxoethyl)-4-fluorochromane-6-carboxamide], the IC50 on BRG-1 (setting [1]) is 0.1 to 1 µM. Besides, the Emax on BRG-1 (setting [2]) was above 95%. At BRM, the “BRM Max % Inhibition” value is on record as above 95% and the IC50 was below 0.1 µM.

Turning to `O=C(CNC(=O)c1ccc2c(c1)[C@](F)(C(F)F)COC2)Nc1nc(-c2cc(F)cc(N3CCC3)c2)cs1` [Compound 276, (R)-N-(2-((4-(3-(azetidin-1-yl)-5-fluorophenyl)thiazol-2-yl)amino)-2-oxoethyl)-4-(difluoromethyl)-4-fluoroisochromane-6-carboxamide], at BRG-1 (setting [1]), the 50% inhibitory concentration (IC50) is below 0.1 µM. Further, the Emax at BRG-1 (setting [2]) was above 95%. At BRM, the “BRM Max % Inhibition” value is listed as above 95% and the IC50 is below 0.1 µM.

On to `O=C(CNC(=O)c1ccc2c(c1)[C@@](F)(C(F)F)COC2)Nc1nc(-c2cc(F)cc(N3CCC3)c2)cs1` [Compound 277, (S)-N-(2-((4-(3-(azetidin-1-yl)-5-fluorophenyl)thiazol-2-yl)amino)-2-oxoethyl)-4-(difluoromethyl)-4-fluoroisochromane-6-carboxamide], for which the IC50 at BRG-1 (setting [1]) and on BRM was below 0.1 µM throughout. Moreover, the Emax at BRG-1 (setting [2]) is above 95%. Moreover, at BRM, the “BRM Max % Inhibition” value is on record as above 95%.

On to `COc1cccc(-c2csc(NC(=O)CNC(=O)c3ccc4c(c3)[C@@](C)(F)CCOC4)n2)c1` [Compound 278, (S)-5-fluoro-N-(2-((4-(3-methoxyphenyl)thiazol-2-yl)amino)-2-oxoethyl)-5-methyl-1,3,4,5-tetrahydrobenzo[c]oxepine-7-carboxamide], for which, at BRG-1 (setting [1]), the IC50 was above 5 µM. In addition, on BRG-1 (read-out: BRG1 Max % Inhibition, ATPase catalytic activity, ADP-Glo), the Emax is above 90%. Moreover, on BRM, the “BRM Max % Inhibition” value was above 90% and the IC50 lay within 0.1 to 1 µM.

With `COc1cccc(-c2csc(NC(=O)CNC(=O)c3ccc4c(c3)[C@](C)(F)CCOC4)n2)c1` [Compound 279, (R)-5-fluoro-N-(2-((4-(3-methoxyphenyl)thiazol-2-yl)amino)-2-oxoethyl)-5-methyl-1,3,4,5-tetrahydrobenzo[c]oxepine-7-carboxamide], the IC50 at BRG-1 (setting [1]) and on BRM was 0.1 to 1 µM in each case. On BRG-1 (setting [2]), the Emax was above 90%. Besides, the “BRM Max % Inhibition” value at BRM is above 90%.

In the case of `COC(=O)N1CCC(c2csc(NC(=O)CNC(=O)c3ccc4c(c3)[C@](C)(F)COC4)n2)CC1` [Compound 281, methyl (S)-4-(2-(2-(4-fluoro-4-methylisochromane-6-carboxamido)acetamido)thiazol-4-yl)piperidine-1-carboxylate], the IC50 lay within 1 to 5 µM on BRG-1 (setting [1]) and 0.1 to 1 µM on BRM. The Emax at BRG-1 (setting [2]) was above 90%. For the same compound, the “BRM Max % Inhibition” value on BRM is recorded as above 90%.

Take `C[C@@H]1CN(c2cccc(-c3csc(NC(=O)CNC(=O)c4ccc5c(c4)C(C)(C)COC5)n3)n2)C[C@H](C)O1` [Compound 282, N-(2-((4-(6-((cis)-2,6-dimethylmorpholino)pyridin-2-yl)thiazol-2-yl)amino)-2-oxoethyl)-4,4-dimethylisochromane-6-carboxamide]: the IC50 at BRG-1 (setting [1]) fell in the range of 0.1 to 1 µM. The Emax at BRG-1 (setting [2]) was above 95%. Further, at BRM, the “BRM Max % Inhibition” value is reported as above 95% and the IC50 was below 0.1 µM.

Take `C[C@@H]1CN(c2cccc(-c3csc(NC(=O)CNC(=O)c4cccc([C@]5(C(F)F)CCOC5)c4)n3)c2)C[C@H](C)O1` [Compound 285]: the IC50 on BRG-1 (setting [1]) was in the range of 0.1 to 1 µM. Besides, the Emax on BRG-1 (setting [2]) was above 95%. Further, at BRM, the “BRM Max % Inhibition” value was above 95% and the IC50 was below 0.1 µM.

`C[C@@H]1CN(c2cccc(-c3csc(NC(=O)CNC(=O)c4cccc([C@@]5(C(F)F)CCOC5)c4)n3)c2)C[C@H](C)O1` [Compound 286, 3-((S)-3-(difluoromethyl)tetrahydrofuran-3-yl)-N-(2-((4-(3-((cis)-2,6-dimethylmorpholino)phenyl)thiazol-2-yl)amino)-2-oxoethyl)benzamide]: the IC50 at BRG-1 (setting [1]) was 1 to 5 µM; on BRM, below 0.1 µM. At BRG-1 (setting [2]), the Emax is above 95%. On BRM, the “BRM Max % Inhibition” value is on record as above 95%.

With `CN1C[C@](C)(C#N)c2cc(C(=O)NCC(=O)Nc3nc(-c4cc(F)cc(N5CCC5)c4)cs3)ccc21` [Compound 288, (R)-N-(2-((4-(3-(azetidin-1-yl)-5-fluorophenyl)thiazol-2-yl)amino)-2-oxoethyl)-3-cyano-1,3-dimethylindoline-5-carboxamide], the IC50 was above 5 µM at BRG-1 (setting [1]) and 0.1 to 1 µM at BRM. In addition, on BRG-1 (setting [2]), the Emax is above 75%. For the same compound, on BRM, the “BRM Max % Inhibition” value is above 75%.

Take `CN1C[C@@](C)(C#N)c2cc(C(=O)NCC(=O)Nc3nc(-c4cc(F)cc(N5CCC5)c4)cs3)ccc21` [Compound 289, (S)-N-(2-((4-(3-(azetidin-1-yl)-5-fluorophenyl)thiazol-2-yl)amino)-2-oxoethyl)-3-cyano-1,3-dimethylindoline-5-carboxamide]: on BRG-1 (setting [1]), the IC50 was below 0.1 µM. The Emax at BRG-1 (setting [2]) was above 95%. Moreover, on BRM, the “BRM Max % Inhibition” value is listed as above 95% and the IC50 is below 0.1 µM.
